Data reported in patent publication US7994127B2, “Treatment of rett syndrome” (Massachusetts Institute of Technology, priority 2007, dated 2011).

Tested on: MeCP2−/y mice
Assay: Survival and disease progression (Kaplan-Meier)
Format: in vivo, mouse
Description: A. (1-3) IGF-1 reduces the frequency of bradycardia in MeCP2 null mice. Pooled heart rate distributions observed across mice from different treatments, in beats per minute (bpm). The Y axis depicts the percent of observations within an experimental group that exceed a given bpm value (X axis). Comparisons are between 8 week old animals (WT or KO), some of which received (1-3)IGF-1 treatment for 6 weeks (KO-T). The KO distribution (pink) was left-shifted compared to the wild-type distribution (black), indicating a significant reduction in the distribution of heart rates. […] B. (1-3)IGF-1 treatment improves locomotor function in MeCP2 null mice. Baseline nocturnal activity was measured by placing animals in cages equipped with a movement detector (infrared beam). […] “N”=number of animals per group. C. (1-3)IGF-1 treated MeCP2 KO mice have longer life expectancy than vehicle treated controls. Kaplan-Meier survival curves for MeCP2-/y mice treated with vehicle (KO, red line) or (1-3)IGF-1 (KO-T, green line). […] MeCP2-/y mice were given daily IP injections of (1-3)IGF-1 (0.01 mg/g body weight/day) every day from 2 weeks of age onward. “n” is the number of mice per experimental group. (1-3)IGF-1 treatment: For the survival measurements, the nocturnal activity analysis and the immunoblot analysis, (1-3) IGF-1 (Bachem Biosciences # H22468) was administered daily via intra-peritoneal injections (0.01 mg/g body weight, vehicle=saline, 0.01% BSA). The treatment was started at P15 and maintained throughout the course of the experiments. For intracellular physiology experiments, the mice were injected daily (0.01 mg/g body weight, vehicle=saline, 0.01% BSA) for 2 weeks, from P15 to P28-P32 when they were used for acute slice preparation. For optical imaging experiments, mice were injected with (1-3) IGF-1 (0.02 mg/g body weight, vehicle=saline, 0.01% BSA) daily from the day of the lid suture to the day of imaging. Slice physiology preparation: Coronal sections (300 μm thick) at or near sensorimotor cortex were cut in <4° C. ACSF using a Vibratome. Slices were incubated at 37° C. for 20 minutes after slicing, and at room temperature for the remainder of the experiment. Slices were transferred to a Warner chamber and recordings were taken from visually identified pyramidal neurons located in layer 5. […] Cells were visualized with an Achroplan 40× water-immersion lens with infrared-DIC optics (Zeiss) and detected with an infrared camera (Hamamatsu) projecting to a video monitor. […] Then in current clamp 10 pulses (500 ms, 40-140 pA at 10 pA increments), were applied to quantify evoked firing rates and cellular excitability. […]

NCC(=O)N1CCC[C@H]1C(=O)N[C@@H](CCC(=O)O)C(=O)O [(1-3)IGF-1, glycyl-L-prolyl-L-glutamic acid]
life expectancy, Kaplan-Meier survival curves (FIG. 4C) (KO-T vs vehicle treated littermates, P=0.54*10^−7, log rank test): significantly longer life expectancy
increase in life expectancy (MeCP2−/y mice treated vs MeCP2 KO littermates, 0.01 mg/g body weight/day IP from 2 weeks of age): ~50%
0.5 probability survival (MeCP2−/y mice treated, untreated KO ~60 days): 90 days
age at which symptoms develop (treated MeCP2 knockout mice vs controls): at the same age as controls
